From patent US10273313B2, “Multimeric mannosides, a process for preparing the same and their uses as a drug” (CENTRE NATIONAL DE LA RECHERCHE SCIENTIFIQUE, priority 2012, dated 2019) come the findings set out here.

“And” between values parts separate entries of the source, which are not always exact repeats. Equal entries are not always repeated. Where two headings read alike, the source gives them in different places.

The target of test [1] is T1, monovalent lectin domain of FimH (Escherichia coli, UniProt P08191).
T1 construct: with the monovalent lectin domain of FimH were measured using isothermal calorimetry (ITC)
The class given is binding.

For test [2], the system named is E. coli strain UTI89 in the bladder of C3H/HeN mice. Briefly: In vivo inhibition in the murine cystitis model (instillation with UTI89). Here is the method: In vivo inhibition was evaluated by instilling 1-4 together with the UTI89 strain via a catheter in the bladder of C3H/HeN mice. […] A group of ten animals was used for each concentration of antagonists. […] The animals were sacrificed at a 6 h post infection time.
A murine model of urinary tract infection was used to test the ability of the compounds to inhibit the colonization of UTI89 in the bladder [Hung C. S.; Dodson, K. W., Hultgren S. J. Nat. Protoc. 2009, 4, 1230-1243 and Wellens A.; Garofalo C.; Nguyen H.; Van Gerven N.; Slättegård R.; Hernalsteens, J.-P.; Wyns, L.; Oscarson, S.; De Greve H.; Hultgren S. J.; Bouckaert, J. PLoS ONE 2008, 3, e2040]. The solution with high concentration of compounds was added to the resuspension of UTI89 before given to the mice. The eight-week old Female C3H/HeN mice (Harlan, Horst, The Netherlands) were anesthetized and infected via transurethral catheterization of 10^7 CFU UTI89 in solution in PBS, or in PBS with the compound in the mentioned concentration. The mice were sacrificed at 24 hours post infection and the bladders were harvested, homogenized and resuspended in PBS. The serial dilutions were spot on LB medium agar plates. The bacterial load was determined by counting the CFU recovered from the bladder. The animal experiments were approved by the Ethical Committer for Animal Experiments of Vrije Universiteit Brussel and complied with all relevant national legislation and institutional policies. The Mann-Whitney test was applied for the comparison of the data obtained from the untreated group and inhibition group in GraphPad Prism version 5.1 and two tailed P value were shown (GraphPad software).
A limited number of papers described the in vivo efficiency of anti-adhesive mannosides to treat UTIs.

Test [3] deals with AIEC strain LF82 adhesion to T84 intestinal epithelial cells. Briefly: Adhesion assay on T84 cells with thiazolylaminomannosides (Example 22.3). In kind it is cell-based, Escherichia coli. The method in brief:
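CEACAM6-overexpressing T84 cells pre-incubated 1 h with compound (0.1, 1, 10, 100 μM), then infected with AIEC LF82 at MOI 10 for 3 h in compound presence. Cell-associated bacteria counted after washing; residual adhesion expressed relative to untreated (100%).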

T1 sequence (P08191 22-179): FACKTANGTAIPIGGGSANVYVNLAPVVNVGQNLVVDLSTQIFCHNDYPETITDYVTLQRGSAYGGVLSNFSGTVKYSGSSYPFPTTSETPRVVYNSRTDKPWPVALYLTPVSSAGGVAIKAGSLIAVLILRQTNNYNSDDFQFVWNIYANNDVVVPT

Regarding `OCC1OC(OCCCCCCCOCc2cn(CC3OC4OC5C(Cn6cc(COCCCCCCCOC7OC(CO)C(O)C(O)C7O)nn6)OC(OC6C(Cn7cc(COCCCCCCCOC8OC(CO)C(O)C(O)C8O)nn7)OC(OC7C(Cn8cc(COCCCCCCCOC9OC(CO)C(O)C(O)C9O)nn8)OC(OC8C(Cn9cc(COCCCCCCCOC%10OC(CO)C(O)C(O)C%10O)nn9)OC(OC9C(Cn%10cc(COCCCCCCCOC%11OC(CO)C(O)C(O)C%11O)nn%10)OC(OC%10C(Cn%11cc(COCCCCCCCOC%12OC(CO)C(O)C(O)C%12O)nn%11)OC(OC3C(O)C4O)C(O)C%10O)C(O)C9O)C(O)C8O)C(O)C7O)C(O)C6O)C(O)C5O)nn2)C(O)C(O)C1O` (centres unmarked) [Compound 2], the “Affinity of FimH for the ligand (in words)” value in test [1] (ITC) is given as “nanomolar affinities”. Further, in test [1] (normal (direct) titration), the “Molar ratio n meas” value stood at 0.12, the “ΔG°” value is -10.5 kcal/mol, the “ΔH°” value was -77.5 kcal/mol and the “ΔS°” value is −227 cal/mol/deg. In addition, the Kd in test [1] (normal (direct) titration, compound injected into FimH) was determined as 18.2 nM. Besides, in test [1] (reverse titration), the “Molar ratio n meas” value is 3 and 3.01; the “ΔG°” value is -11.6 kcal/mol; the “ΔH°” value is -19.2 kcal/mol; the “ΔS°” value was −25.9 cal/mol/deg. Besides, the Kd in test [1] (reverse titration, FimH injected into compound) was 2.86 nM and 2.9 nM. The “Bacterial reduction compared with monovalent 1 and 3 at 1 mM” value in test [2] (10 μM (1.8 and 2.5 μg)) is given as “equivalent bacterial reduction”. In test [2] (around 2 μg instilled in the mouse bladder, after 24 h), the “Reduction of urinary tract infection” value is on record as “significantly reduced the urinary tract infection”.

With `CCCCCCCO[C@H]1O[C@H](CO)[C@@H](O)[C@H](O)[C@@H]1O` [HM, Heptylmannoside, reference compound], the “Inhibitory potency relative to α-D-mannose” value in test [3] is given as 100 times. Besides, in test [3] (100 nM), the “Inhibitory effect on adhesion” value is on record as “no significant effect”. Moreover, the “AIEC remaining attached to the cells (residual adhesion)” value in test [3] (1 μM) is given as “No significant decrease”. Also, the Residual adhesion in test [3] (10 μM) is listed as 52.4%.

In general, Kd refers to the equilibrium constant for the complex coming apart. Higher therefore signals a looser complex.
